Measured values as given in patent publication US9593305B2, “Differentiation of pluripotent stem cells” (Janssen Biotech, Inc., priority 2008, dated 2017).

Tested on: H1 human embryonic stem cells
Assay: Secondary assay: panel of compounds with growth factor combinations and muscimol, no activin A (Example 6, Table 5)
Format: cell-based
Conditions: no AA (with Wnt3a)
Procedure: Clusters of H1 human embryonic stem cells were grown on reduced growth factor […]™ (Invitrogen; Cat #356231)-coated tissue culture plastic. Cells were passaged using collagenase (Invitrogen; Cat #17104-019) treatment and gentle scraping, washed to remove residual enzyme, and plated with even dispersal at a ratio of 1:1 (surface area) on reduced growth factor […]™-coated 96-well black plates (Packard ViewPlates; PerkinElmer; Cat #6005182) using volumes of 100 μl/well. Cells were allowed to attach as clusters and then recover log phase growth over a 1 to 3 day period, feeding daily with MEF-conditioned medium supplemented with 8 ng/ml bFGF (R&D Systems; Cat #233-FB). Plates were maintained at 37° C., 5% CO2 in a humidified box throughout the duration of the assay. Stocks of growth factors purchased from R&D Systems were EGF (Cat #236-EG), FGF4 (Cat #235-F4), PDGF-A (Cat #221-AA), PDGF-D (Cat #1159-SB), PDGF-A/B (Cat #222-AB), and VEGF (Cat #293-VE). […] All growth factors were solubilized in PBS with 0.1% BSA (Sigma; Cat #A7888) and stored frozen at −80° C. […] Cat #D2650) and stored frozen at −80° C. Compounds were available as 5 mM stocks in 96-well plate format, solubilized in 100% DMSO and stored at −80° C. Compounds were further diluted to an intermediate concentration of 0.2 mM in 50 mM HEPES (Invitrogen; Cat #15630-080), 20% DMSO and stored at 4° C. All growth factors and inhibitors were prepared in a deep well, 96-well polypropylene plate, diluted to 5× intermediate stocks in DMEM:F12 base medium at the beginning of assay and stored at 4° C. A secondary screening assay was conducted, testing in triplicate and feeding on alternate days over the four-day assay timeframe. Assays were initiated by aspirating culture medium from each well followed by three washes in PBS to remove residual growth factors and serum. Test volumes of 80 μl per well were added back containing DMEM:F12 base medium (Invitrogen; Cat #11330-032) supplemented with 0.625% FCS (HyClone; […] All remaining growth factors were tested at a final assay concentration of 50 ng/ml (EGF, FGF4, PDGF-A, PDGF-A/B, VEGF). […] At the conclusion of four-days of culture, assay plates were washed twice with PBS, fixed with 4% paraformaldehyde (Alexis Biochemical; Cat #ALX-350-011) at room temperature for 20 minutes, then washed three times with PBS and permeabilized with 0.5% Triton X-100 (Sigma; Cat #T8760-2) for 20 minutes at room temperature. Cells were washed again three times with PBS and blocked with 4% chicken serum (Invitrogen; Cat #16110082) in PBS for 30 minutes at room temperature. Primary antibody (goat anti-human SOX17; R&D Systems; cat #AF1924) was diluted 1:100 in 4% chicken serum and added to each well for one hour at room temperature. Alexa Fluor 488 conjugated secondary antibody (chicken anti-goat IgG; Molecular Probes; Cat #AZ1467) was diluted 1:200 in PBS and added to each sample well after washing three times with PBS. To counterstain nuclei, 4 μg/ml Hoechst 33342 (Invitrogen; Cat #H3570) was added for ten minutes at room temperature. Plates were washed once with PBS and left in 100 μl/well PBS for imaging. Imaging was performed using an IN Cell Analyzer 1000 (GE Healthcare) utilizing the 51008bs dichroic for cells stained with Hoechst 33342 and Alexa Fluor 488. Exposure times were optimized from positive control wells and from untreated negative control wells stained with secondary antibody alone. Images from 15 fields per well were acquired to compensate for any cell loss during the bioassay and subsequent staining procedures. […] Segmentation for the nuclei was determined based on grayscale levels (baseline range 100-300) and nuclear size. Averages and standard deviations were calculated for each replicate data set. Total SOX17 protein expression was reported as total intensity or integrated intensity, defined as total fluorescence of the cell multiplied by the area of the cell. […]

[1] = EGF + FGF4 + PDGF-AB + Muscimol

SMILES	Cell Number, % of positive control (EGF) [%]	Cell Number, Average Total Cell Number (EGF)	Sox17 Expression, % of positive control (EGF) [%]	Sox17 Expression, Average Total Intensity (EGF)	Cell Number, % of positive control (EGF + FGF4) [%]	Cell Number, Average Total Cell Number (EGF + FGF4)	Sox17 Expression, % of positive control (EGF + FGF4) [%]	Sox17 Expression, Average Total Intensity (EGF + FGF4)	Cell Number, % of positive control (EGF + FGF4 + PDGF-A + Muscimol) [%]	Cell Number, Average Total Cell Number (EGF + FGF4 + PDGF-A + Muscimol)	Sox17 Expression, % of positive control (EGF + FGF4 + PDGF-A + Muscimol) [%]	Sox17 Expression, Average Total Intensity (EGF + FGF4 + PDGF-A + Muscimol)	Cell Number, % of positive control (EGF + FGF4 + PDGF-A + VEGF) [%]	Cell Number, Average Total Cell Number (EGF + FGF4 + PDGF-A + VEGF)	Sox17 Expression, % of positive control (EGF + FGF4 + PDGF-A + VEGF) [%]	Sox17 Expression, Average Total Intensity (EGF + FGF4 + PDGF-A + VEGF)	Cell Number, % of positive control (EGF + FGF4 + PDGF-AB) [%]	Cell Number, Average Total Cell Number (EGF + FGF4 + PDGF-AB)	Sox17 Expression, % of positive control (EGF + FGF4 + PDGF-AB) [%]	Sox17 Expression, Average Total Intensity (EGF + FGF4 + PDGF-AB)	other results
O=C1NCCCc2cncc(c2)-c2ncnc(n2)Nc2cccc(c2)CN2CCCC1C2 (stereo not drawn) [Compound 17, 3,5,7,14,20,26,31-Heptaazapentacyclo[22.3.1.1-2,6˜1˜8,12˜1˜14,18˜]hentriaconta-1(28), 2(31), 3,5,8(30), 9,11,24,26-nonaen-19-one]	73.43	6942	0.74	1.27E+06	60.69	5738	1.83	3.14E+06	144.37	13649	8.43	1.45E+07	110.85	10480	5.23	8.97E+06	47.10	4453	0.54	9.30E+05	Cell Number, % of positive control [1]: 109.91%; Cell Number, Average Total Cell Number [1]: 10391; Sox17 Expression, % of positive control [1]: 5.20%; Sox17 Expression, Average Total Intensity [1]: 8.92E+06; Cell Number, % of positive control (EGF + PDGF-A + VEGF): 60.59%; Cell Number, Average Total Cell Number (EGF + PDGF-A + VEGF): 5728; Sox17 Expression, % of positive control (EGF + PDGF-A + VEGF): 1.24%; Sox17 Expression, Average Total Intensity (EGF + PDGF-A + VEGF): 2.14E+06; Cell Number, % of positive control (FGF4 + PDGF-A + VEGF): 139.59%; Cell Number, Average Total Cell Number (FGF4 + PDGF-A + VEGF): 13198; Sox17 Expression, % of positive control (FGF4 + PDGF-A + VEGF): 7.54%; Sox17 Expression, Average Total Intensity (FGF4 + PDGF-A + VEGF): 1.29E+07
O=C1NCCCc2cncc(c2)-c2ncnc(n2)Nc2cccc(c2)CN2CCC1CC2 [Compound 22, 1,8,10,12,16,22,30-Heptaazapentacyclo[22.2.2.1-3,7˜0.1˜9,13˜1-14,18˜]hentriaconta-3(31), 4,6,9(30), 10,12,14(29), 15,17-nonaen-23-one]	149.19	14105	1.02	1.75E+06	137.19	12971	6.05	1.04E+07	122.80	11610	7.77	1.33E+07	132.44	12522	4.59	7.88E+06	175.36	16580	5.01	8.60E+06	Cell Number, % of positive control [1]: 155.23%; Cell Number, Average Total Cell Number [1]: 14676; Sox17 Expression, % of positive control [1]: 3.27%; Sox17 Expression, Average Total Intensity [1]: 5.61E+06; Cell Number, % of positive control (EGF + PDGF-A + VEGF): 215.48%; Cell Number, Average Total Cell Number (EGF + PDGF-A + VEGF): 20372; Sox17 Expression, % of positive control (EGF + PDGF-A + VEGF): 2.91%; Sox17 Expression, Average Total Intensity (EGF + PDGF-A + VEGF): 4.99E+06; Cell Number, % of positive control (FGF4 + PDGF-A + VEGF): 129.85%; Cell Number, Average Total Cell Number (FGF4 + PDGF-A + VEGF): 12277; Sox17 Expression, % of positive control (FGF4 + PDGF-A + VEGF): 2.86%; Sox17 Expression, Average Total Intensity (FGF4 + PDGF-A + VEGF): 4.90E+06
CCN1CCCc2cccc(c2)-c2ncnc(n2)Nc2cccc(c2)CCNC(=O)C1 [Compound 29, 18-Ethyl-3,5,7,15,18,28-hexaazatetracyclo[20.3.1.1˜2,6˜0.1˜8,12˜]octacosa-1(26), 2(28), 3,5,8(27), 9,11,22,24-nonaen-16-one]	18.84	1971	−9.00	−1.44E+07	71.10	7436	−2.72	−4.35E+06	96.30	10071	1.85	2.95E+06	84.70	8858	−4.48	−7.15E+06	62.48	6535	−4.71	−7.52E+06	Cell Number, % of positive control [1]: 13.15%; Cell Number, Average Total Cell Number [1]: 1376; Sox17 Expression, % of positive control [1]: −8.91%; Sox17 Expression, Average Total Intensity [1]: −1.42E+07; Cell Number, % of positive control (EGF + PDGF-A + VEGF): 84.91%; Cell Number, Average Total Cell Number (EGF + PDGF-A + VEGF): 8880; Sox17 Expression, % of positive control (EGF + PDGF-A + VEGF): −5.34%; Sox17 Expression, Average Total Intensity (EGF + PDGF-A + VEGF): −8.53E+06; Cell Number, % of positive control (FGF4 + PDGF-A + VEGF): 77.89%; Cell Number, Average Total Cell Number (FGF4 + PDGF-A + VEGF): 8146; Sox17 Expression, % of positive control (FGF4 + PDGF-A + VEGF): −3.02%; Sox17 Expression, Average Total Intensity (FGF4 + PDGF-A + VEGF): −4.82E+06
